In data set [1] the test system is Mus musculus. Description: In vivo antitumor activity of 75 ug/kg.day subcutaneously administered compound against P388 leukemia in mouse. The format is functional.
Data set [2] concerns Nucleic Acid. Description: Relative fist order rate constant for alkylation at the high affinity site of DNA. The format is functional.
Data set [3] concerns Mus musculus. Description: In vivo antitumor activity of 39 ug/kg.day subcutaneously administered compound against Ip implanted L1210 tumor in mouse. Format: functional.
The subject of data set [4] is L1210. Kind of data set: Inhibitory concentration required for 50% in vitro cytotoxic activity was determined against L1210 mouse lymphocytic leukemia at 40 pM. The format is functional, cell-based.
Data set [5] can be described thus: Relative stability based on solvolysis studies. Format: physicochemical.
Data set [6] concerns Mus musculus. Kind of data set: In vivo antitumor activity of 10 ug/kg.day subcutaneously administered compound against Ip implanted L1210 tumor in mouse. The format is functional.
In data set [7] the test system is Mus musculus. Description: In vivo antitumor activity of 29 ug/kg.day subcutaneously administered compound against Ip implanted L1210 tumor in mouse. The format is functional.
The species entered for data set [8] is Mus musculus. Kind of data set: Relative cytotoxic activity against mouse L1210 leukemia. The format is functional.
Data set [9] is described as follows: Half-life was determined. As to conditions: human. The format is ADME.
For data set [10], the system named is Nucleic Acid. Kind of data set: Percent alkylation at the high affinity alkylation site [5'-d(AATB)-3'] within w794 DNA at 4 degrees C, 24 h; range is 5-10 %. Format: functional.
Data set [11] relates to L1210. Kind of data set: Relative IC50 for in vitro cytotoxic activity against L1210 mouse lymphocytic leukemia. Format: functional.
For data set [12], the system named is Mus musculus. Description: In vivo antitumor activity of 19 ug/kg.day subcutaneously administered compound against Ip implanted L1210 tumor in mouse. The format is functional.
Data set [13] has as its system Nucleic Acid. Description: Relative intensity of DNA alkylation at the high affinity alkylation site [5'-d(AATB)-3'] within w794 DNA at 4 degrees C, 24 h. Format: functional.
In data set [14] the test system is Mus musculus. Description: Survivors at day 18 at 29 ug/kg.day; value is given as 1/6 and no evidence of residual tumor found. Format: functional, organism-based.
Data set [15] has as its system Nucleic Acid. Description: Percent alkylation at the high affinity alkylation site [5'-d(AATB)-3'] within w794 DNA at 4 degrees C, 24 h. The format is functional.
Data set [16] has as its system Mus musculus. Description: In vivo antitumor activity of 5 ug/kg.day subcutaneously administered compound against Ip implanted L1210 tumor in mouse. Format: functional.
Data set [17] relates to L1210. Kind of data set: Inhibitory concentration required for 50% in vitro cytotoxic activity was determined against L1210 mouse lymphocytic leukemia at 10 pM. The format is functional, cell-based.
Data set [18] relates to Mus musculus. Description: Survivors at day 18 at 39 ug/kg.day; value is given as 4/6 and no evidence of residual tumor found. Format: functional, organism-based.

In brackets after ≈: the same amount, converted by molar mass. Several values for one entry are separate records, joined by “and”; a condition that tells them apart may be missing. Equal values may be shown once.

For the compound `Cc1c[nH]c2c1C13CC1CN(C(=O)c1cc4cc(NC(=O)c5cc6ccccc6[nH]5)ccc4[nH]1)C3=CC2=O` (single isomer, unassigned; (+)), the T/C was 259 in the data set with Mus musculus [1]; 129 in the data set on Mus musculus [3]; 114 and 133 with Mus musculus [6]; 118 with Mus musculus [7]; 113 with Mus musculus [12]. In addition, in the data set on Nucleic Acid [2], the rel k stood at 0.07. Also, the IC50 with L1210 [4] was determined as 0.02 ng/mL (≈ 0.0399 nM). In data set [5], this compound gave a Relative stability of 0.27. This compound returned a Relative cytotoxic activity in the data set filed under Mus musculus [8] of 0.25. The half-life in data set [9] was 36.7 h. Also, the DNA alkylation with Nucleic Acid [10] came to 10%. In the data set with L1210 [11], this compound returned a Cytotoxic activity of 0.25. In the data set on Nucleic Acid [13], this compound had a Relative intensity of 0.1.

`O=C(Nc1ccc2[nH]c(C(=O)N3C[C@H]4C[C@@]45C3=CC(=O)c3ccccc35)cc2c1)c1cc2ccccc2[nH]1` gave a rel k with Nucleic Acid [2] of 1. Besides, the T/C was above 200 with Mus musculus [3]; 156 with Mus musculus [6]; 120 in the data set on Mus musculus [16]; above 175 with Mus musculus [7]; 162 in the data set on Mus musculus [12]. Further, the Survivors entry in the data set on Mus musculus [14] and with Mus musculus [18] was “No evidence of residual tumor found” each time. The compound also showed a DNA alkylation with Nucleic Acid [15] of 93%. Also, the Relative stability in data set [5] came to 1. In the data set listed under Mus musculus [8], this compound came in with a Relative cytotoxic activity of 1. In the data set with L1210 [17], this compound yielded an IC50 of 0.005 ng/mL (≈ 0.01 nM). Besides, in [9], the half-life is 133 h. In the data set on L1210 [11], this compound displayed a Cytotoxic activity of 1. The compound further gave a Relative intensity in the data set with Nucleic Acid [13] of 1.

The term IC50 denotes the concentration that inhibits the measured activity by half. As a reminder, the half-life is how long it takes for the measured level to halve.

These data come from ChEMBL document CHEMBL1125807, “Synthesis and preliminary evaluation of (+)-CBI-indole2: an enhanced functional analog of (+)-CC-1065” (Bioorg Med Chem Lett, 1991).
